This note sets out measurements from patent US8669232B2, “Flavonol compounds, a bioactive extract/fraction from Ulmus wallichiana and its compounds for prevention for treatment of osteo-health related disorders” (Council of Scientific & Industrial Research, priority 2008, dated 2014).

The subject of assay [1] is calvarial osteoblasts. The assay is described as follows: Alkaline phosphatase activity assay in calvarial osteoblasts. In kind it is cell-based, neonatal Sprague-Dawley rats. On the procedure:
(§1) Neonatal rat calvarial cell cultures are prepared as described previously (Chattopadhyay et al., Endocrinology 145:3451-62, 2004) using slight modification. Briefly, for calvarial osteoblast cultures, frontal and parietal bones from neonatal Sprague-Dawley rats (1-3 day old) were digested in 0.1% collagenase/0.1% dispase in α-MEM to obtain 5 sequential digests. The second through fifth digests are combined and grown to confluence at 37° C. and 5% CO2 in air in α-MEM, supplemented with 10% fetal bovine serum (FBS), 2 mM glutamine, 100 U/ml penicillin-streptomycin, non-essential amino acid solution and sodium pyruvate.
For alkaline phosphatase (ALP) assay, osteoblasts were plated in 96-well (2000 cells/well) plates in regular growth medium. Twenty-four hours later, when the cells formed a confluent monolayer, medium was replaced with α-MEM medium supplemented with 10% FBS, 10 mM β-glycerophosphate and 50 μg/ml ascorbic acid. Treatment was given with varying concentration of the test compound K012, K058, K068 and K100 at 1 nM and 100 nM concentration. Forty-eight hours after induction, ALP activity of the osteoblasts was determined as described by Akiyama et al (Exp Cell Res 235:362-369, 1997) with slight modifications. Briefly, cells were washed once with PBS and ALP activity was measured by adding ALP buffer (1 M diethanolamine, 0.5 mM MgCl2, 1 mg/ml PNPP, pH 9.0), incubating in 37° C., and absorbance (405 nm) was measured using a microplate spectrophotometer. Statistical significance was determined by paired two-tailed Student's t-tests.

The test system of assay [2] is calvarial osteoblasts. The assay is described as follows: In vitro mineralization of calvarial osteoblasts (alizarin red-S, von kossa). In kind it is cell-based, neonatal Sprague-Dawley rats. The conditions noted are these: for Von kossa staining (mineralized nodules) compared with controls (vehicle): 21 days culture. On the procedure:
as §1
Ability of cells to produce mineralized matrix is important with regard to development of materials for bone regeneration. Mineralization of extracellular matrix by osteoblasts was determined using alizarin red-S (AR-S) assay combined with cetylpyridinium chloride (CPC) extraction. (Stanford et al, J. Biol. Chem. 270:9420-9428; 1995.) Alizarin red is a dye that binds selectively to nascent calcium salts and is widely used for calcium mineral histochemistry. Cells were seeded onto a six well plate containing 10000 cells/well in culture medium supplemented with 10 mM β-glycerophosphate and 50 μg/ml ascorbic acid with test compounds K012, K058, K068 and K0100 at 1 nM and 100 nM concentration. Treatment was given for 21 days and after completion of the treatment samples were rinsed with PBS followed by fixation (4% HCHO for 20 min). Photomicrographs of the stained wells were taken. Subsequently, alizarin red-S stain was extracted using 10% (w/v) cetylpyridinium chloride (CPC) in […] sodium phosphate, pH 7.0, for 15 min at room temperature, and the resulting solutions were read on a Microplate reader with a test wavelength of 540 nm against a reference wavelength of 620 nm. Mineralization nodules were also seen by Von kossa staining procedure (A. M. Chou et al. Materials Science and Engineering C 20 (2002) 77-83.) After 21 days culture, cells in tissue culture wells were washed with PBS and immersed in 5% (w/v) silver nitrate solution for 45 min. After rinsing with distilled water, they were fixed in 5% (w/v) sodium bicarbonate formalin for 8 min. Finally, they were immersed in 5% (w/v) sodium thiosulphate solution for 5 min and washed thoroughly with water for 15 min and photomicrographs were taken.

Another assay concerns Bone marrow cells (BMCs). The experiment in a line: In vitro mineralization from mouse bone marrow. In kind it is cell-based, balb/c mice. As to conditions: 1 nM and 100 nM, 21 days. An excerpt:
Adult balb/c mice were used in this study. Bone marrow cells (BMCs) were harvested from the femurs and tibias of the animals, as described elsewhere (Maniatopoulos et al. Cell Tissue Res 1988:254:317-30.; Ishaug et al., J Biomed Mater Res 1997; 36:17-28.). Briefly, bones were aseptically excised from the hind limbs of the mice following ether euthanasia. The soft tissue was removed, and the proximal end of the femur and distal end of the tibia were clipped off using sterile scissors, a hole was created in the knee joint end of each bone with an needle, and the marrow was flushed from the shaft with control medium (CM) which consisted of α-MEM supplemented with 10% fetal calf serum, 100 U/ml penicillin, 100 U/ml streptomycin (Sigma, Chemical Co., St. Louis, Mo., USA). The cells were suspended in this medium, and the cell suspensions from all bones were combined in a centrifuge tube. The suspension was spun down at 800 rpm for 5 min. Cells were counted by using a haemocytometer. The supernatant was aspirated, and the pellet was re-suspended in fresh CM and then seeded into 12-well plates. 200000 cells/well were cultured in 12-well plates and in a humidified atmosphere, with 5% CO2, at 37° C. in the same medium supplemented with 10 mM-β-glycerophosphate, 50 μg/ml L-ascorbic acid and 10^−8M dexamethasone with different concentration of the test compound. This medium was replaced every other day (John et al. Trends. Biomater. Artif. Organs 2002:16(1):28-33.; Connolly. Clin Orthop 1995:313: 8-18.; Gebhart and Lane. Acta Orthop Belg 1991:57(2):130-43.; Gurpinar et al. J Biomater Appl 2003; 18(1):25-33; Lan and Wang, Blood Substitutes. Biotechnol 2003; 31(1):59-68.). Treatments K012, K058, K068 and K0100 at 1 nM and 100 nM concentration were given for 21 days and after completion of the treatment samples were rinsed with PBS followed by fixation (4% HCHO for […]). Samples were then rinsed with nanopure water and stained for 10 min with 40 mM AR-S, pH 4.2, at room temperature. Photomicrographs of the stained wells were taken. Subsequently, alizarin red-S stain was extracted using 10% (w/v) CPC in […] sodium phosphate, pH 7.0, for […] at room temperature, and the resulting solutions were read on a Microplate reader with a test wavelength of 540 nm against a reference wavelength of 620 nm.

For the compound `O=c1c(O)c(-c2ccc(O)c(O)c2)oc2cc(O)c(C3O[C@H](CO)[C@@H](O)[C@H](O)[C@H]3O)c(O)c12` (some centres unmarked) [K012, 6-Glucopyranosyl-3,3′,4′,5,7-pentahydroxyflavone], the “osteoblast differentiation (summary of in vitro effects)” value in the assay with calvarial osteoblasts [1] is given as “promoted”. In addition, in the assay with calvarial osteoblasts [2], the “osteoblast mineralization (summary of in vitro effects)” value is on record as “promoted” and the “Von kossa staining (mineralized nodules) compared with controls (vehicle)” value was “increased”. Also, in the assay on Bone marrow cells (BMCs), the “mineralization of bone marrow osteoblasts (alizarin red staining)” value is given as “stimulated”.

Turning to `O=C1c2c(cc(O)c([C@@H]3OC(CO)[C@@H](O)[C@H](O)C3O)c2O)O[C@@H](c2ccc(O)c(O)c2)[C@@H]1O` (stereo partly drawn) [K058, (2S,3S)-(+)-3′,4′,5,7-tetrahydroxydihydroflavonol-6-C-β-D-glucopyranoside], the “osteoblast differentiation (summary of in vitro effects)” value in the assay on calvarial osteoblasts [1] was “promoted”. Also, in the assay on calvarial osteoblasts [2], the “osteoblast mineralization (summary of in vitro effects)” value is “promoted” and the “Von kossa staining (mineralized nodules) compared with controls (vehicle)” value is “increased”. Besides, the “mineralization of bone marrow osteoblasts (alizarin red staining)” value with Bone marrow cells (BMCs) is “stimulated”.
